Legend:
Details in all cases: 72 h
[1] = tested on: HepG2; assay: relative viability EC50 (midpoint between 100% and the lowest measured viability); higher = less toxic
[2] = tested on: Calu-3; assay: as above
[3] = tested on: U2OS; assay: as above
[4] = tested on: Vero E6; assay: as above
[5] = tested on: Caco-2; assay: as above
[6] = tested on: HepG2; assay: drug sensitivity score (DSS) for viability; higher = more toxic; extreme values may be limits of the assay
[7] = tested on: Calu-3; assay: as above
[8] = tested on: U2OS; assay: as above
[9] = tested on: Vero E6; assay: as above
[10] = tested on: Caco-2; assay: as above
[11] = tested on: HepG2; assay: cell viability relative to DMSO; higher = less toxic
[12] = tested on: Calu-3; assay: as above
[13] = tested on: U2OS; assay: as above
[14] = tested on: Vero E6; assay: as above
[15] = tested on: Caco-2; assay: as above

| SMILES | relative viability EC50 [1] [µM] | relative viability EC50 [2] [µM] | relative viability EC50 [3] [µM] | relative viability EC50 [4] [µM] | relative viability EC50 [5] [µM] | drug sensitivity score [6] | drug sensitivity score [7] | drug sensitivity score [8] | drug sensitivity score [9] | drug sensitivity score [10] | cell viability ([11]; 1 nM) [%] | cell viability ([11]; 10 nM) [%] | cell viability ([11]; 100 nM) [%] | cell viability ([11]; 1000 nM) [%] | cell viability ([11]; 10000 nM) [%] | cell viability ([12]; 1 nM) [%] | cell viability ([12]; 10 nM) [%] | cell viability ([12]; 100 nM) [%] | cell viability ([12]; 1000 nM) [%] | cell viability ([12]; 10000 nM) [%] | cell viability ([13]; 1 nM) [%] | cell viability ([13]; 10 nM) [%] | cell viability ([13]; 100 nM) [%] | cell viability ([13]; 1000 nM) [%] | cell viability ([13]; 10000 nM) [%] | cell viability ([14]; 1 nM) [%] | cell viability ([14]; 10 nM) [%] | cell viability ([14]; 100 nM) [%] | cell viability ([14]; 1000 nM) [%] | cell viability ([14]; 10000 nM) [%] | cell viability ([15]; 1 nM) [%] | cell viability ([15]; 10 nM) [%] | cell viability ([15]; 100 nM) [%] | cell viability ([15]; 1000 nM) [%] | cell viability ([15]; 10000 nM) [%] |
| --- | --- | --- | --- | --- | --- | --- | --- | --- | --- | --- | --- | --- | --- | --- | --- | --- | --- | --- | --- | --- | --- | --- | --- | --- | --- | --- | --- | --- | --- | --- | --- | --- | --- | --- | --- |
| CC(C)CCNc1ncccc1C(=O)N1CCN(Cc2ccccc2)CC1 [NSI-189] | > 10 | > 10 | > 10 | > 10 | > 10 | 0 | 0 | 0 | 0 | 0 | 108 | 91.5 | 102 | 91.2 | 103 | 96.3 | 108 | 92.5 | 92.7 | 115 | 97.5 | 98 | 95.5 | 97.8 | 99.3 | 96.5 | 95.7 | 94.9 | 93.3 | 104 | 96.8 | 97.8 | 100 | 92.9 | 106 |
| C=C(C)[C@@H]1CCC(C)=C[C@H]1c1c(OC)cc(C)cc1OC [O-1918] | > 10 | > 10 | > 10 | > 10 | > 10 | 0 | 0 | 0 | 0 | 0 | 101 | 94.9 | 104 | 95.3 | 95.9 | 102 | 97.5 | 96 | 91.6 | 95.9 | 102 | 106 | 97 | 101 | 99 | 106 | 102 | 106 | 99.5 | 102 | 96.4 | 105 | 100 | 98.5 | 105 |
| Nc1ncnc2c1c(-c1cnc3[nH]ccc3c1)nn2C1CCCC1 [PP-121] | 1.05 | 0.355 | 0.933 | 1.43 | 0.596 | 10.2 | 14.2 | 11.6 | 8.9 | 12.1 | 121 | 106 | 104 | 58.3 | 11.4 | 98 | 100 | 85.7 | 33.4 | 15.3 | 104 | 98.5 | 97 | 48 | 1.6 | 99.5 | 104 | 102 | 73.7 | 9.3 | 105 | 100 | 90.5 | 43.6 | 13.1 |
| CC(O)Cn1cnc2c1c(=O)n(C)c(=O)n2C (stereo not given) [Proxyphylline] | > 10 | > 10 | > 10 | > 10 | > 10 | 0 | 0 | 0 | 0 | 0 | 106 | 102 | 98.7 | 111 | 103 | 92.5 | 100 | 106 | 99.3 | 104 | 98.9 | 92.8 | 95.1 | 93.6 | 104 | 90.1 | 99.1 | 87 | 90.8 | 108 | 102 | 93.9 | 99.9 | 101 | 94.6 |
| CCOC(=O)Nc1ccc(NCc2ccc(F)cc2)cc1N [Retigabine] | > 10 | > 10 | > 10 | > 10 | > 10 | 0 | 0 | 0 | 0 | 0 | 97.6 | 106 | 100 | 102 | 105 | 91.8 | 88.5 | 98.4 | 103 | 98.3 | 102 | 97.4 | 104 | 97 | 98 | 89.5 | 99.1 | 96.1 | 93.5 | 111 | 100 | 102 | 104 | 96.8 | 106 |
| COc1cc(Cc2cnc(N)nc2N)c(C(C)C)cc1OC [Ro-3] | > 10 | > 10 | > 10 | > 10 | > 10 | 0 | 0 | 0 | 0 | 0 | 99.2 | 92.3 | 93.5 | 101 | 103 | 98.1 | 87.8 | 98 | 101 | 103 | 97.8 | 99.7 | 95 | 102 | 102 | 90.6 | 95.7 | 96.5 | 94.9 | 103 | 94.9 | 90.5 | 97.3 | 101 | 102 |

— the supplement of paper PMC13380429
